# Laboratory results from US9260391B2, “Hypoglycemic dihydropyridones” (The Trustees of Columbia University in the City of New York, priority 2008, dated 2016).
# Entries after “also recorded” stand apart in the source; their conditions may differ.
# Key:
# Format in all cases: in vivo, rat
# Lewis rats [1] = test: Intraperitoneal glucose tolerance test (IPGTT), compounds given i.v.; settings: for AUC Blood Glucose IPGTT: 2 mg/kg (2.0 μg/gbw) i.v.; for blood glucose levels around sixty minutes following glucose challenge: i.v. injection at 2 mg/kg body weight; for area under the curve from glucose tolerance tests: each series a separate experiment
# Description: (§1) All animal studies were reviewed and approved by the Institutional Animal Care and Use Committee (IACUC) at Columbia University's Medical School. All experiments were performed in accordance with the IACUC approved procedures. Normal male Lewis rats (100-400 grams) were obtained from Taconic (Taconic Inc., Germantown, N.Y.) and were housed under conditions of controlled humidity (55±5%), temperature (23±1° C.), and lighting (light on: 06.00-18.00 hours) with free access to standard laboratory rat chow and water. Rats were handled daily to minimize nonspecific stress for more than 7 days before the experiments began. In most experiments, it was necessary to measure blood glucose in fasting animals. For these groups, food was removed at the beginning of the light cycle, 6 hours before glucose levels were measured. Diabetes mellitus was induced by intraperitoneal injection of streptozotocin (Sigma Chemical Co., St. Louis, Mo.) (25 to 50 mg/kg) to animals (100 to 150 grams) that had been fasted 4 hours to enhance the effectiveness of STZ treatment.
# The STZ solution was prepared fresh by dissolving it in 0.1 M citrate buffer (pH 5.5) and terminally sterile filtered. Control Lewis age and weight matched rats received a 0.5 ml/kg citrate vehicle alone via intraperitoneal injection. Sixty minutes prior to intraperitoneal glucose tolerance testing (IPGTT), anesthesia of male Lewis rats was induced with isoflurane (3-4% in oxygen) and maintained with 1-2% isoflurane in oxygen. Anaesthetized rats were administered TBZ and other indicated compounds at the indicated dose by intravenous (i.v.) injection using the penile vein. TBZ was dissolved in neat sterile dimethylsulfoxide (DMSO) and diluted (always more than 10 fold) in sterile saline. Rats received injections of vehicle alone (10% DMSO in saline) or reserpine (in saline). Animals recovered fully before receiving IPGTT.
# (§2) Blood samples were collected from a superficial blood vessel in the tails of the rats following 6 hours of fasting between 12:00 noon and 2:00 p.m. The fasting blood glucose (BG) levels of the rats were measured using an Accu-Check blood glucose monitoring system (Roche Diagnostics, Sommerville, N.J.). Intraperitoneal glucose tolerance tests (IPGTT) were performed in 6 hour fasting un-anaesthetized animals. Briefly, after baseline BG measurements, animals received an intraperitoneal (i.p.) injection of 1 gram glucose/kilogram body weight. To minimize stress during the procedure, rats were handled by the same operator during acclimatization and later during weighing and IPGTT. Blood samples (approximately 30 μl) were collected at baseline and then again 15, 30, 60, 90, and 120 minutes following i.p. glucose administration. BG concentrations were measured immediately on these samples and the remainder processed.
# (§3) Plasma was immediately separated by centrifugation at 3000×g for 15 minutes and then stored at −20° C. until analysis. Insulin and glucagon concentration measurements in rat plasma were performed by ELISA as per the manufacturer's instructions using kits from Linco Research Inc. (St. Charles, Mo.) and Alpco Diagnostics (Salem, N.H.), respectively. To validate the test, saline injections were performed by the same method. […] The area under the IPGTT glucose concentration×time curve (AUCIPGTT) was calculated by the trapezoidal rule. The area under the insulin or glucagon concentration×time curve (AUC INS or AUC GCG) was calculated in a similar manner.
# Anaesthetized rats were administered TBZ, THB, butamol, reserpine, emetine, or HG-6 at a dose of approximately 2-3 mg/kg body weight by intravenous (i.v.) injection using the penile vein. TBZ, THB, butamol, reserpine, emetine, and HG-6 were each separately dissolved in neat sterile dimethylsulfoxide (DMSO) and diluted (always more than 10 fold) in sterile saline. Rats received injections of vehicle alone (10% DMSO in saline) or reserpine (in saline). Animals recovered fully before receiving IPGTT. […]
# Lewis rats [2] = test: IPGTT of analogs HG-1 to HG-11, compounds given orally (FIG. 15); settings: 2 mg/kg orally; for hypoglycemic activity in IPGTT compared with TBZ / HG-3: FIG. 15
# Description: FIG. 15 is a bar graph showing the results of testing various analogs HG-1 to HG-11 in IPGTT glucose tolerance tests in rats. Results for TBZ, emetine, and olanzapine are also shown. Lewis rats fasted for 6 hours were administered the compounds orally (30 min, 2 mg/kg) followed by intraperitoneal glucose injection (0 min, […]), and plasma glucose levels were monitored for 120 mins. Results are presented as AUC percentage of the vehicle. Error bars indicate SEM (n=5).
# Racemic HG-2 and its diastereoisomer HG-1 were evaluated for their ability to improve glucose tolerance by performing intraperitoneal glucose tolerance tests (IPGTT) in rats. IPGTT testing is described above. See also Murthy, R., et al., Eur. J. Nucl. Med. Mol. Imaging, 2008, 35(4), 790-797.
# [3] = test system: dopamine content of brain and pancreas tissue; test: Dopamine measurements in brain and pancreas extracts (ELISA)
# Description: Anaesthetized rats received an intravenous injection of TBZ and were sacrificed one hour later. Euthanasia was performed by exsanguination of the anesthetized animal. Brain and pancreas were harvested as quickly as possible and frozen at −80° C. until use. Frozen tissue was pulverized in a liquid nitrogen cooled mortar and extracted in 0.01 N HCl. The tissue extract was centrifuged at 10,000×g at 4° C. to remove debris and the total protein was estimated by reading the absorbance at 280 nm. The concentration of dopamine in the extract was estimated using an ELISA kit from Rocky Mountain Diagnostics (Colorado Springs, Colo.) per the manufacturer's instructions and normalized to the extract protein concentration.
# Lewis rats [4] = test: Plasma insulin and glucagon during IPGTT (ELISA)
# Description: as §2, §3
# diabetic Lewis rats = test: IPGTT in streptozotocin-induced diabetic Lewis rats
# Description: as §1, with “In most experiments, it was necessary to measure blood glucose in fasting animals.” left out, “Diabetes mellitus was induced by intraperitoneal injection of streptozotocin (Sigma Chemical Co., St. Louis, Mo.) (25 to 50 mg/kg) to animals (100 to 150 grams) that had been fasted 4 hours to enhance the effectiveness of STZ treatment.” left out
# Blood samples were collected from a superficial blood vessel in the tails of the rats following 6 hours of fasting between 12:00 noon and 2:00 p.m. The fasting blood glucose (BG) levels of the rats were measured using an Accu-Check blood glucose monitoring system (Roche Diagnostics, Sommerville, N.J.). […] BG concentrations were measured immediately on these samples and the remainder processed.
# Plasma was immediately separated by centrifugation at 3000×g for 15 minutes and then stored at −20° C. until analysis. […] The area under the IPGTT glucose concentration×time curve (AUCIPGTT) was calculated by the trapezoidal rule. […]
# [5] = 2 mg/kg body weight i.v., Lewis rats 9-11 weeks old, vs vehicle (DMSO)
# [6] = single dose 2-3 mg/kg body weight i.v., FIG. 12
compound,measurement,setting,value
"COc1ccc2c(c1OC)CN1CCc3cc4c(cc3C1C2)OCO4 (stereo not shown) [THB, tetrahydroberberine]",AUC Blood Glucose IPGTT,Lewis rats [1],smaller area under the curve; also recorded: lower than that for vehicle and butamol treated animals
same,blood glucose excursion during IPGTT,Lewis rats [1]; [5],reduce the blood glucose excursion
same,blood glucose levels around sixty minutes following glucose challenge,Lewis rats [1],returned to control or near normal levels
COC1=CC(=O)N2CCc3cc(OC)c(OC)cc3C2C1 (stereo not shown) [HG-10],hypoglycemic activity in IPGTT compared with TBZ / HG-3,Lewis rats [2],active but less potent
COc1ccc(C2CC(OCC(C)C)=CC(=O)O2)cc1OC (stereo not shown) [HG-7],hypoglycemic activity in IPGTT compared with TBZ / HG-3,Lewis rats [2],loss of the improved activity
COc1ccc(C2CC(=O)CC(=O)N2)cc1OC (stereo not shown) [HG-5],hypoglycemic activity in IPGTT compared with TBZ / HG-3,Lewis rats [2],loss of the improved activity
COc1ccc(C2CC(O)C(CC(C)C)CN2)cc1OC (stereo not shown) [HG-2],hypoglycemic activity in IPGTT compared with TBZ / HG-3,Lewis rats [2],less potent than TBZ
CC[C@H]1CN2CCc3cc(OC)c(OC)cc3[C@@H]2C[C@@H]1C[C@H]1NCCc2cc(OC)c(OC)cc21 [emetine],AUC Blood Glucose IPGTT,Lewis rats [1],smaller area under the curve; also recorded: lower than that for vehicle and butamol treated animals
same,blood glucose excursion during IPGTT,Lewis rats [1]; [5],reduce the blood glucose excursion
same,blood glucose levels around sixty minutes following glucose challenge,Lewis rats [1],returned to control or near normal levels
same,blood glucose excursion during IPGTT,Lewis rats [1]; [6],consistently reduced the blood glucose excursion
same,area under the curve from glucose tolerance tests,Lewis rats [1]; [6],consistently suppressed the area under the curve
same,area under the curve from glucose tolerance tests,"Lewis rats [1]; single dose 2-3 mg/kg body weight i.v., FIG. 12, listed as emitine",depress the area under the curve
COc1ccc([C@@H]2C[C@H](O)[C@@H](CC(C)C)CN2)cc1OC [HG-1],hypoglycemic activity in IPGTT compared with TBZ / HG-3,Lewis rats [2],less potent than TBZ
CC(C)(C)NCC(O)c1ccc(O)c(CO)c1 (stereo not shown) [butamol],AUC Blood Glucose IPGTT,Lewis rats [1],smaller area under the curve
same,blood glucose excursion during IPGTT,Lewis rats [1]; [5],did not reduce the blood glucose excursion; also recorded: does not reduce the blood glucose excursion
same,blood glucose levels around sixty minutes following glucose challenge,Lewis rats [1],returned to control or near normal levels
COc1ccc(-c2cc(OCC(C)C)cc(=O)[nH]2)cc1OC [compound 17],hypoglycemic activity in IPGTT compared with TBZ / HG-3,Lewis rats [2],loss of the improved activity
"COc1cc2c(cc1OC)[C@@H]1CC(=O)[C@@H](CC(C)C)CN1CC2 [TBZ, tetrabenazine]",dopamine content of brain and pancreas tissue,"[3]; TBZ 1.6 μg/gm body weight i.v., one hour later, normalized to total protein",reduces the dopamine content of brain and pancreas tissue
same,dopamine content of pancreas and brain,[3]; one hour after injection of 10 μg/gm body weight of tetrabenazine,significantly depleted the dopamine content of pancreas and brain
same,glucose-stimulated insulin and glucagon secretion in vivo,"Lewis rats [4]; TBZ 1.6 μg/gm, Lewis rats 9-11 week old, during IPGTT",alters glucose-stimulated insulin and glucagon secretion in vivo
same,plasma insulin levels relative to vehicle treated controls,Lewis rats [4]; following TBZ and glucose challenge,greater
same,plasma glucagon levels relative to controls,Lewis rats [4]; following i.v. TBZ administration and glucose challenge,generally lower
same,AUC INS with TBZ treatment relative to AUC INS of control animals,Lewis rats [4]; four out of five experiments,greater than two fold
same,baseline plasma concentrations of glucagon,Lewis rats [4]; prior to glucose challenge,"sometimes lower than controls, although these differences did not reach statistical significance"
same,"AUC GCG, less than AUC GCG of control animals",Lewis rats [4]; three of five experiments,75%-85%
same,"blood glucose excursion / area under the curve in IPGTT, diabetic rats","diabetic Lewis rats; STZ-diabetic Lewis rats 5-8 weeks, TBZ 1.6 μg/gm i.v.",smaller area under the curve; also recorded: reduces the blood glucose excursion during IPGTT in diabetic Lewis rats
same,"blood glucose levels before i.p. glucose challenge, diabetic rats",diabetic Lewis rats; around sixty minutes following i.v. injection of TBZ,returned to control or near normal levels
same,decrease of the AUC IPGTT (area under the blood glucose concentration-time curve),"Lewis rats [2]; 30 min before i.p. glucose, relative to vehicle, n=5",26%
same,AUC Blood Glucose IPGTT,Lewis rats [1],smaller area under the curve; also recorded: lower than that for vehicle and butamol treated animals
same,blood glucose excursion during IPGTT,Lewis rats [1]; [5],reduced the blood glucose excursion
same,blood glucose excursion during IPGTT,"Lewis rats [1]; 2 mg/kg body weight i.v., Lewis rats 9-11 weeks old, vs vehicle (DMSO), listed as Tetrabenazine",reduced the blood glucose excursion
same,blood glucose excursion during IPGTT,"Lewis rats [1]; Lewis rats 9-11 week old, TBZ 1.6 μg/gm body weight i.v., vs vehicle",reduces the blood glucose excursion
same,blood glucose excursion during IPGTT,"Lewis rats [1]; Lewis rats 9-11 week old, TBZ 1.6 μg/gm body weight i.v., vs vehicle, listed as tetrabenazine",significant change in the size and shape of the glucose disposition curve
same,reduction of the glucose excursion (areas under the curve during IPGTT),Lewis rats [1]; TBZ 1.6 μg/gbw,40-50%
same,AUC IPGTT of controls compared with TBZ treated animals,"Lewis rats [1]; TBZ 1.6 μg/gm, series of experiments n=4, p<0.05",significantly higher
same,baseline fasting glucose concentration,"Lewis rats [1]; after TBZ administration, before glucose challenge, data not shown",no reproducible differences were observed
same,blood glucose levels around sixty minutes following glucose challenge,Lewis rats [1],returned to control or near normal levels
same,blood glucose excursion during IPGTT,Lewis rats [1]; [6],consistently reduced the blood glucose excursion
same,area under the curve from glucose tolerance tests,Lewis rats [1]; [6],consistently suppressed the area under the curve; also recorded: depress the area under the curve
same,dose dependence of AUC IPGTT,"Lewis rats [1]; varying doses of TBZ, normalized to each animal's untreated baseline IPGTT",complex dose response effect; also recorded: reduces the blood glucose excursion in a dose dependent manner
COc1cc2c(cc1OC)C1CC(OCC(C)C)=CC(=O)N1CC2 (stereo not shown) [HG-8],hypoglycemic activity in IPGTT compared with TBZ / HG-3,Lewis rats [2],active but less potent
"COc1cc2c(cc1OC)C1CC(N)C(CC(C)C)CN1CC2 (stereo not shown) [HG-6, 3-isobutyl-9,10-dimethoxy-2,3,4,6,7,11b-hexahydro-1H-pyrido[2,1-a]isoquinolin-2-amine]",blood glucose excursion during IPGTT,Lewis rats [1]; [6],consistently reduced the blood glucose excursion
same,area under the curve from glucose tolerance tests,Lewis rats [1]; [6],consistently suppressed the area under the curve; also recorded: depress the area under the curve
COC1=CC(=O)OC(c2ccc(OC)c(OC)c2)C1 (stereo not shown) [HG-9],hypoglycemic activity in IPGTT compared with TBZ / HG-3,Lewis rats [2],loss of the improved activity
COC(=O)[C@H]1[C@H]2C[C@@H]3c4[nH]c5cc(OC)ccc5c4CCN3C[C@H]2C[C@@H](OC(=O)c2cc(OC)c(OC)c(OC)c2)[C@@H]1OC [reserpine],AUC Blood Glucose IPGTT,Lewis rats [1],smaller area under the curve
same,blood glucose excursion during IPGTT,Lewis rats [1]; [5],reduce the blood glucose excursion
same,blood glucose levels around sixty minutes following glucose challenge,Lewis rats [1],returned to control or near normal levels
same,blood glucose and AUC IPGTT relative to untreated controls,"Lewis rats [1]; reserpine single concentration 25 μg/gbm, data not shown",persistent hyperglycemia and larger AUC IPGTT
